Data taken from patent publication US20050171190A1, “Substituted 5-chroman-5-YL-ethylamine compounds and their use for the treatment of glaucoma” (Alcon, Inc., priority 2002, published 2005).
pEC50, pIC50: −log10 of the molar value. Like-named read-outs stand apart in the source and are kept apart here.

Experiments:
5-HT2 receptors = conditions: cited from earlier work
5-HT2A receptor [1] = target: 5-HT2A receptor (Homo sapiens, UniProt P28223); conditions: cited from earlier work
[2] = drug discrimination studies; cited from earlier work
5-HT2C receptor = target: T1, 5-HT2C receptor (Homo sapiens, UniProt P28335); conditions: cited from earlier work
T1 sequence (P28335 33-458): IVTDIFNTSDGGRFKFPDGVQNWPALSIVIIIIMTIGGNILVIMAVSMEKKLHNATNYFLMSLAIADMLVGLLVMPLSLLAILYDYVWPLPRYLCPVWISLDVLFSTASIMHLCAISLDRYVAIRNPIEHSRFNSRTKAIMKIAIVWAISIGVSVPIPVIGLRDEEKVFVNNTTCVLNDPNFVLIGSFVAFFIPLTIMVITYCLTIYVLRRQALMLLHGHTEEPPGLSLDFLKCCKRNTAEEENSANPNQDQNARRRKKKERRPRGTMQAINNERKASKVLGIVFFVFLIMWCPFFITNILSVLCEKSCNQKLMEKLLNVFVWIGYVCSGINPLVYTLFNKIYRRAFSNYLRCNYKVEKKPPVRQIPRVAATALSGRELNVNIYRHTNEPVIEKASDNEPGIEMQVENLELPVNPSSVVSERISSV

[3] = monkey; due to its α1A receptor activity; cited from earlier work
[4] = rabbits; cited from earlier work
5-HT2A Receptor [5] = test: 5-HT2 receptor binding assay ([125I]DOI competition); design: species or system rat or human; conditions: inhibition of [125I]DOI binding, cerebral cortex homogenates
Experimental: Aliquots of post mortem rat or human cerebral cortex homogenates (400 μL) dispersed in 50 mM Tris-HCl buffer (pH 7.4) are incubated with [125I]DOI (80 pM final) in the absence or presence of methiothepin (10 μM final) to define total and non-specific binding, respectively, in a total volume of 0.5 mL. The assay mixture is incubated for 1 hour at 23° C. in polypropylene tubes and the assays terminated by rapid vacuum filtration over Whatman GF/B glass fiber filters previously soaked in 0.3% polyethyleneimine using ice-cold buffer. Test compounds (at different concentrations) are substituted for methiothepin. Filter-bound radioactivity is determined by scintillation spectrometry on a beta counter. The data are analyzed using a non-linear, iterative curve-fitting computer program (Bowen et al. 1995) to determine the compound affinity parameter. The concentration of the compound needed to inhibit the [125I]DOI binding by 50% of the maximum is termed the IC50 value.

5-HT2A Receptor [6] = target: T2, 5-HT2A Receptor (Rattus norvegicus, UniProt P14842); test: 5-HT2 functional assay: [Ca2+]i mobilization (FLIPR); format: cell-based
T2 construct: endogenous in cells; host or cells: A7r5 rat vascular smooth muscle cells
T2 sequence (P14842 whole entry): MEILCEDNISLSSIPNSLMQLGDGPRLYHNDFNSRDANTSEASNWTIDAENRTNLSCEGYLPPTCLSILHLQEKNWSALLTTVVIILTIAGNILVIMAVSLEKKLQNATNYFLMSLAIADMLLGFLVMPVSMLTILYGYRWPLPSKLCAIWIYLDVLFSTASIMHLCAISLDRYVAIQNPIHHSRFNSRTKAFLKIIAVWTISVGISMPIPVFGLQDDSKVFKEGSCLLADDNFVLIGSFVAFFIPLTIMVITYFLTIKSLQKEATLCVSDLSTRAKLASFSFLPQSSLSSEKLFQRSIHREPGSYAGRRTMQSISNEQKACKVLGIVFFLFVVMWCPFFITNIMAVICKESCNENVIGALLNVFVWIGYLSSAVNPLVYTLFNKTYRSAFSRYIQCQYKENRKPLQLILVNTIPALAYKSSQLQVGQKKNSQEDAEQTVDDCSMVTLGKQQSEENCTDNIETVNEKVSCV
Experimental: The receptor-mediated mobilization on intracellular calcium ([Ca2+]i) was studied using the Fluorescence Imaging Plate Reader (FLIPR) instrument. Rat vascular smooth muscle cells, A7r5, were grown in a normal media of DMEM/10% FBS and 10 μg/mL gentamycin. Confluent cell monolayers were trypsinized, pelleted, and re-suspended in normal media. Cells were seeded in a 50 μL volume at a density of 20,000 cells/well in a black wall, 96-well tissue culture plate and grown for 2 days.
On the day of the experiment, one vial of FLIPR Calcium Assay Kit dye was re-suspended in 50 mL of a FLIPR buffer consisting of Hank's Balanced Salt Solution (HBSS), 20 mM HEPES, and 2.5 mM probenecid, pH 7.4. […]
The compound plate and cell plate were placed in the FLIPR instrument. At the beginning of an experimental run, a signal test was performed to check the basal fluorescence signal from the dye-loaded cells and the uniformity of the signal across the plate. The basal fluorescence was adjusted between 8000-12000 counts by modifying the exposure time, the camera F-stop, or the laser power. […] Fluorescence data were collected in real-time at 1.0 sec intervals for the first 60 secs and at 6.0 sec intervals for an additional 120 secs. Responses were measured as peak fluorescence intensity minus basal and where appropriate were expressed as a percentage of a maximum 5-HT-induced response. […]

5-HT2A receptor, sequence (P28223 whole entry): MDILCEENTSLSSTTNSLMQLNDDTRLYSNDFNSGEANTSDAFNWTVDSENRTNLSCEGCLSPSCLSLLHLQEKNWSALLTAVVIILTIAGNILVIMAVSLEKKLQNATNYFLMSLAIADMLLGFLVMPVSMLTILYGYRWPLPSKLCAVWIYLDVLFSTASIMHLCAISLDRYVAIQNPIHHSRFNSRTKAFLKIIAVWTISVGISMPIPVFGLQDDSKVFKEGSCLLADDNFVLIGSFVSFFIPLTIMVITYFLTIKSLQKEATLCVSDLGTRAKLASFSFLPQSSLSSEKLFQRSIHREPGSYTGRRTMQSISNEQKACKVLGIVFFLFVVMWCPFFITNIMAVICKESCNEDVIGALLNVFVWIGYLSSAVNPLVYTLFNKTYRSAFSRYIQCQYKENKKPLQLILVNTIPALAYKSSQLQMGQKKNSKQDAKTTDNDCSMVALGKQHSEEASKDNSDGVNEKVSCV

## COc1cc(CCN)c2c(c1OC)OCC2 [2-(6,7-Dimethoxy-2,3-dihydro-benzofuran-4-yl)-ethylamine]
5-HT2 receptors
  affinity for 5-HT2 receptors: have affinity

## COc1cc(Br)c2c(c1CC(C)N)CCO2 (stereo not drawn) [2-(7-bromo-5-methoxy-2,3-dihydro-benzofuran-4-yl)-1-methylethylamine]
5-HT2A receptor [1]
  affinity for the 5-HT2A receptor: high affinity
[2]
  generalization to LSD: generalize to LSD

## CC(N)Cc1cccc2occc12 (stereo not drawn) [2-benzofuran-4-yl-1-methylethylamine]
5-HT2C receptor
  agonist activity at the 5-HT2C receptor: agonist activity

## COc1ccccc1N1CCN(CCCNc2c(C)c(=O)n(C)c(=O)n2C)CC1 [5-methylurapidil]
[3]
  effect on IOP: lowers IOP

## CCCN(CCC)C1CCc2cccc(O)c2C1 (stereo not drawn) [Compound 8-OH-DPAT, 8-hydroxy-2-(di-n-propylamino)tetralin]
[4]
  effect on IOP: reduces IOP

## COc1cc(CC(C)N)c(OC)cc1I (stereo not drawn) [DOI]
5-HT2A Receptor [5]
  pIC50: 9.48
5-HT2A Receptor [6]; A7r5 cells, percentage of a maximum 5-HT-induced response
  Efficacy (Emax, %): 31%
5-HT2A Receptor [6]; A7r5 rat vascular smooth muscle cells, [Ca2+]i mobilization
  pEC50: 7.52
